Several values for one entry are separate records, joined by “and”; a condition that tells them apart may be missing. Equal values may be shown once.

Type in all cases: cell-based, human
In one series the test system is Hs578T cells. Nature of the series: Antiproliferation assay (cell counting, 48 h) in Hs578T breast cancer cells. The settings on record: for Selectivity Index for Hs578T: FB IC50 relative to Hs578T IC50; for IC50: Hs578T cells, 48 h incubation, cell counting. The source says: (§1) Regarding the different characteristics of the used breast cancer cell lines, we can notice that MDA-MB-231 and Hs578T are triple negative.
(§2) Primary skin normal fibroblasts were kindly provided by Prof. Emer.

The test system of series [1] is normal primary fibroblasts (FB). Nature of the series: cells. The settings on record: for IC50: Fibroblast, normal primary human fibroblasts, 48 h incubation, cell counting.
From the text: as §2

In another series the test system is MDA-MB-231 cells. Nature of the series: Antiproliferation assay (cell counting, 48 h) in MDA-MB-231 breast cancer cells. The settings on record: for Selectivity Index for MDA-MB-231: FB IC50 relative to MDA-MB-231 IC50; for IC50: MDA-MB-231 cells, 48 h incubation, cell counting.
From the text: as §1, §2

The test system of the next series is MCF-7 cells. Nature of the series: Antiproliferation assay (cell counting, 48 h) in MCF-7 breast cancer cells. The settings on record: for Selectivity Index for MCF-7: FB IC50 relative to MCF-7 IC50; for IC50: MCF-7 cells, 48 h incubation, cell counting.
From the text: as §1, §2

Usually IC50 stands for the midpoint of a concentration-inhibition curve. High values mean weaker potency in that assay, low ones greater potency in that assay. As for `O=c1[nH]cc(F)c(=O)[nH]1` [Compound 5-FU, 5-fluorouracil, reference compound], the “Selectivity Index for Hs578T” value with Hs578T cells is 1.28. For the same molecule, the half-inhibitory concentration (IC50) in the series with Hs578T cells (Homo sapiens, Hs-578T) was 7.38 ± 2.49 µM; in series [1] it was 9.43 ± 0.8 µM; with MDA-MB-231 cells (Homo sapiens) it was 19.2 ± 0.39 µM; with MCF-7 cells (Homo sapiens, MCF7), 5.37 ± 1.16 µM. Moreover, the “Selectivity Index for MDA-MB-231” value in the series with MDA-MB-231 cells is 0.49. Moreover, the “Selectivity Index for MCF-7” value with MCF-7 cells came to 1.76.
With `COC(=O)[C@]1(C)CCC[C@]2(C)c3cc(O)c(C(C)=O)cc3CCC12` (stereo partly drawn) [Compound 28], the IC50 came out at 136 ± 2.47 µM in the series with Hs578T cells (Homo sapiens, Hs-578T); 115 ± 40.1 µM in the series on MDA-MB-231 cells (Homo sapiens); 207 ± 7.28 µM in the series on MCF-7 cells (Homo sapiens, MCF7).
On the same counts, the results for `COC(=O)[C@]1(C)CCC[C@]2(C)c3cc(OC)c(C(=O)/C=C/c4cccnc4)cc3CCC12` (stereo partly drawn) [Compound 32, (1R,4aS)-methyl 6-methoxy-1,4a-dimethyl-7-((E)-3-(pyridin-3-yl)acryloyl)-1,2,3,4,4a, 9,10,10a-octahydrophenanthrene-1-carboxylate] are over 75 µM, over 75 µM and over 75 µM.
Regarding `COC(=O)[C@]1(C)CCC[C@]2(C)c3cc(O)c(C(=O)/C=C/c4ccncc4)cc3CCC12` (stereo partly drawn) [Compound 35, (1R,4aS)-methyl 6-hydroxy-1,4a-dimethyl-7-((E)-3-(pyridin-4-yl)acryloyl)-1,2,3,4,4a, 9,10,10a-octahydrophenanthrene-1-carboxylate], in the series with Hs578T cells, the “Selectivity Index for Hs578T” value was determined as 3.89. Also, the IC50 in the series with Hs578T cells (Homo sapiens, Hs-578T) was 8.69 ± 0.55 µM; in series [1], 33.8 ± 6.63 µM; in the series on MDA-MB-231 cells (Homo sapiens), 37.1 ± 1.82 µM; in the series on MCF-7 cells (Homo sapiens, MCF7), 9.9 ± 0.05 µM. The “Selectivity Index for MDA-MB-231” value with MDA-MB-231 cells was found to be 0.91. The “Selectivity Index for MCF-7” value in the series with MCF-7 cells came out at 3.42.
As to `COC(=O)[C@]1(C)CCC[C@]2(C)c3cc(O)c(C(=O)/C=C/c4ccc5ccccc5n4)cc3CCC12` (stereo partly drawn) [Compound 38, (1R,4aS)-methyl 6-hydroxy-1,4a-dimethyl-7-((E)-3-(quinolin-2-yl)acryloyl)-1,2,3,4,4a, 9,10,10a-octahydrophenanthrene-1-carboxylate], the half-inhibitory concentration (IC50) in the series with Hs578T cells (Homo sapiens, Hs-578T) is over 75 µM; in series [1], 161 ± 13.1 µM; with MDA-MB-231 cells (Homo sapiens), 73 ± 2.31 µM; in the series with MCF-7 cells (Homo sapiens, MCF7), 7.06 ± 1.71 µM. Further, the “times less toxic than 5-FU” value in series [1] amounted to 12.9 times. Also, in the series with MDA-MB-231 cells, the “Selectivity Index for MDA-MB-231” value came out at 2.20. The “Selectivity Index for MCF-7” value with MCF-7 cells is 22.7 and 22.75.
Turning to `COC(=O)[C@]1(C)CCC[C@]2(C)c3cc(O)c(C(=O)/C=C/c4cnc5ccccc5c4)cc3CCC12` (stereo partly drawn) [Compound 39, (1R,4aS)-methyl 6-hydroxy-1,4a-dimethyl-7-((E)-3-(quinolin-3-yl)acryloyl)-1,2,3,4,4a, 9,10,10a-octahydrophenanthrene-1-carboxylate], the “Selectivity Index for Hs578T” value in the series on Hs578T cells was 2.09. In addition, the 50% inhibitory concentration (IC50) in the series with Hs578T cells (Homo sapiens, Hs-578T) was 15.7 ± 2.74 µM; in series [1], 32.9 ± 2.27 µM; in the series on MDA-MB-231 cells (Homo sapiens), over 75 µM; in the series with MCF-7 cells (Homo sapiens, MCF7) it was 11.5 ± 1.02 µM. Besides, the “Selectivity Index for MCF-7” value in the series with MCF-7 cells is 2.86.
Regarding `COC(=O)[C@]1(C)CCC[C@]2(C)c3cc(O)c(C(=O)/C=C/c4ccnc5ccccc45)cc3CCC12` (stereo partly drawn) [Compound 40, (1R,4aS)-methyl 6-hydroxy-1,4a-dimethyl-7-((E)-3-(quinolin-4-yl)acryloyl)-1,2,3,4,4a, 9,10,10a-octahydrophenanthrene-1-carboxylate], the IC50 with Hs578T cells (Homo sapiens, Hs-578T) was over 75 µM; in series [1], 92.1 ± 5.47 µM; in the series with MDA-MB-231 cells (Homo sapiens) it was over 75 µM; in the series with MCF-7 cells (Homo sapiens, MCF7) it was over 75 µM.
On to `COC(=O)[C@]1(C)CCC[C@]2(C)c3cc(O)c(C(=O)/C=C/c4ccsc4)cc3CCC12` (stereo partly drawn) [Compound 44, (1R,4aS)-methyl 6-hydroxy-1,4a-dimethyl-7-((E)-3-(thiophen-3-yl)acryloyl)-1,2,3,4,4a,9,10,10a-octahydrophenanthrene-1-carboxylate], for which the “Selectivity Index for Hs578T” value in the series with Hs578T cells was determined as 2.05. Also, the IC50 in the series with Hs578T cells (Homo sapiens, Hs-578T) turned out to be 21.5 ± 1.2 µM; in series [1], 44 ± 1.84 µM; in the series with MDA-MB-231 cells (Homo sapiens) it was 25.2 ± 0.84 µM; in the series with MCF-7 cells (Homo sapiens, MCF7), 3.45 ± 0.36 µM. Besides, the “Selectivity Index for MDA-MB-231” value in the series on MDA-MB-231 cells turned out to be 1.75. In addition, the “Selectivity Index for MCF-7” value in the series on MCF-7 cells is 12.76.
For `COC(=O)[C@]1(C)CCC[C@]2(C)c3cc(O)c(C(=O)/C=C/c4ccc(Br)s4)cc3CCC12` (stereo partly drawn) [Compound 45, (1R,4aS)-methyl 7-((E)-3-(5-bromothiophen-2-yl)acryloyl)-6-hydroxy-1,4a-dimethyl-1,2,3,4,4a,9,10,10a-octahydrophenanthrene-1-carboxylate], the IC50 in the series with Hs578T cells (Homo sapiens, Hs-578T) was over 75 µM; in the series with MDA-MB-231 cells (Homo sapiens) it was over 75 µM; with MCF-7 cells (Homo sapiens, MCF7), 29.9 ± 5.26 µM.
With `COC(=O)[C@]1(C)CCC[C@]2(C)c3cc(O)c(C(=O)/C=C/c4c[nH]c5ccccc45)cc3CCC12` (stereo partly drawn) [Compound 46, (1R,4aS)-methyl 7-((E)-3-(1H-indol-3-yl)acryloyl)-6-hydroxy-1,4a-dimethyl-1,2,3,4,4a,9,10,10a-octahydrophenanthrene-1-carboxylate], the IC50 with Hs578T cells (Homo sapiens, Hs-578T) is over 75 µM; in the series on MDA-MB-231 cells (Homo sapiens) it was over 75 µM; in the series on MCF-7 cells (Homo sapiens, MCF7) it was over 75 µM.
On to `COC(=O)[C@]1(C)CCC[C@]2(C)c3cc(O)c(C(=O)/C=C/c4csc5ccccc45)cc3CCC12` (stereo partly drawn) [Compound 47, (1R,4aS)-methyl 7-((E)-3-(benzo[b]thiophen-3-yl)acryloyl)-6-hydroxy-1,4a-dimethyl-1,2,3,4,4a,9,10,10a-octahydrophenanthrene-1-carboxylate], for which the IC50 in the series on Hs578T cells (Homo sapiens, Hs-578T) is over 75 µM; with MDA-MB-231 cells (Homo sapiens), 40.4 ± 0.67 µM; in the series on MCF-7 cells (Homo sapiens, MCF7), 12.5 ± 8.43 µM.
In the case of `COC(=O)[C@]1(C)CCC[C@]2(C)c3cc(O)c(/C=C/C(=O)c4ccccn4)cc3CCC12` (stereo partly drawn) [Compound 49, (1R,4aS)-methyl 6-hydroxy-1,4a-dimethyl-7-((E)-3-oxo-3-(pyridin-2-yl)prop-1-en-1-yl)-1,2,3,4,4a,9,10,10a-octahydrophenanthrene-1-carboxylate], the “Selectivity Index for Hs578T” value with Hs578T cells stood at 1.39. In addition, the IC50 was 17.1 ± 2.13 µM with Hs578T cells (Homo sapiens, Hs-578T); 23.8 ± 1.07 µM in series [1]; 22.4 ± 0.81 µM in the series with MDA-MB-231 cells (Homo sapiens); 45.9 ± 1.52 µM in the series with MCF-7 cells (Homo sapiens, MCF7). Further, the “Selectivity Index for MDA-MB-231” value with MDA-MB-231 cells was determined as 1.06. In addition, the “Selectivity Index for MCF-7” value in the series on MCF-7 cells is on record as 0.52.
Turning to `COC(=O)[C@]1(C)CCC[C@]2(C)c3cc(O)c(/C=C/C(=O)c4cnccn4)cc3CCC12` (stereo partly drawn) [Compound 51, (1R,4aS)-methyl 6-hydroxy-1,4a-dimethyl-7-((E)-3-oxo-3-(pyrazin-2-yl)prop-1-en-1-yl)-1,2,3,4,4a,9,10,10a-octahydrophenanthrene-1-carboxylate], the “Selectivity Index for Hs578T” value in the series with Hs578T cells was determined as 0.88. Further, the IC50 in the series on Hs578T cells (Homo sapiens, Hs-578T) was 23.11 ± 0.04 µM; in series [1], 20.5 ± 2.46 µM; in the series with MDA-MB-231 cells (Homo sapiens) it was 18 ± 2.78 µM; in the series with MCF-7 cells (Homo sapiens, MCF7), over 75 µM. Besides, the “Selectivity Index for MDA-MB-231” value with MDA-MB-231 cells amounted to 1.14.
In the case of `COC(=O)[C@]1(C)CCC[C@]2(C)c3cc(O)c(/C=C/C(=O)c4ccc(Br)s4)cc3CCC12` (stereo partly drawn) [Compound 53, (1R,4aS)-methyl 7-((E)-3-(5-bromothiophen-2-yl)-3-oxoprop-1-en-1-yl)-6-hydroxy-1,4a-dimthyl-1,2,3,4,4a,9,10,10a-octahydrophenanthrene-1-carboxylate], the IC50 in the series with Hs578T cells (Homo sapiens, Hs-578T) came out at 28.4 ± 1.97 µM; in the series with MDA-MB-231 cells (Homo sapiens), 17.1 ± 0.41 µM; with MCF-7 cells (Homo sapiens, MCF7), 41.4 ± 1.74 µM.
For the molecule “(1R,4aS)-6-hydroxy-1,4a-dimethyl-7-((E)-3-(naphthalen-2-yl)acryloyl)-1,2,3,4,4a,9,10, 10a-octahydrophenanthrene-1-carboxylic acid [Compound 37]”, the results for the IC50 with Hs578T cells, in the series with MDA-MB-231 cells and in the series with MCF-7 cells were over 75 µM, over 75 µM and 11.4 ± 1.55 µM, respectively.
In the case of “(1R,4aS)-methyl 6-hydroxy-1,4a-dimethyl-7-((E)-3-(2,4,5-trifluorophenyl)acryloyl)-1,2,3,4,4a,9,10,10a-octahydrophenanthrene-1-carboxylate [Compound 36]”, the IC50 in the series with Hs578T cells, with MDA-MB-231 cells and with MCF-7 cells was over 75 µM in each case.
With “(1R,4aS)-methyl 7-((E)-3-(2-hydroxyphenyl)-3-oxoprop-1-en-1-yl)-6-methoxy-1,4a-dimethyl-1,2,3,4,4a,9,10,10a-octahydrophenanthrene-1-carboxylate [Compound 31]”, the values for the half-maximal inhibitory concentration (IC50) with Hs578T cells, in the series with MDA-MB-231 cells and in the series with MCF-7 cells were over 75 µM, over 75 µM and 23.9 ± 4.47 µM, respectively.
“(1R,4aS)-methyl 7-((E)-3-(benzofuran-2-yl)acryloyl)-6-hydroxy-1,4a-dimethyl-1,2,3, 4,4a,9,10, 10a-octahydrophenanthrene-1-carboxylate [Compound 52]”: the IC50 in the series with Hs578T cells was 60.2 ± 6.94 µM; with MDA-MB-231 cells, over 75 µM; in the series on MCF-7 cells, over 75 µM.
As to “(E)-1-((4bS,8R)-3-hydroxy-8-methoxy-4b,8-dimethyl-4b,5,6,7,8,8a,9,10-octahydrophenanthren-2-yl)-3-(pyridin-2-yl)prop-2-en-1-one [Compound 34]”, the figures for the half-maximal inhibitory concentration (IC50) in the series with Hs578T cells, in the series with MDA-MB-231 cells and in the series with MCF-7 cells were 28.1 ± 7.76 µM, over 75 µM and 21.4 ± 0.6 µM, respectively.
In the case of “(E)-3-(furan-2-yl)-1-((4bS,8R)-3-hydroxy-8-methoxy-4b,8-dimethyl-4b,5,6,7,8,8a,9,10-octahydrophenanthren-2-yl)prop-2-en-1-one [Compound 42]”, the IC50 is 43.3 ± 4.32 µM with Hs578T cells, over 75 µM in the series on MDA-MB-231 cells and 37 ± 6.89 µM with MCF-7 cells.
For the molecule “Tert-butyl 4-(4-((E)-3-((4bS,8R)-3-methoxy-8-(methoxycarbonyl)-4b,8-dimethyl-4b,5, 6,7,8,8a,9,10-octahydrophenanthren-2-yl)acryloyl)phenyl)piperazine-1-carboxylate [Compound 48]”, the IC50 is 23.2 ± 2.5 µM with Hs578T cells, over 75 µM in the series on MDA-MB-231 cells and 25.62 ± 0.09 µM with MCF-7 cells.
